Here are results for two compounds from article PMC6858451, “Rhesus Theta Defensin 1 Promotes Long Term Survival in Systemic Candidiasis by Host Directed Mechanisms” (Scientific Reports, 2019).

The MIC is the lowest concentration that inhibits growth of the organism. Higher therefore signals a need for much substance. As usually defined, the MFC is the lowest tested concentration that kills the fungus rather than only halting it. Low readings indicate greater fungicidal potency, high ones weaker fungicidal potency.

In one test the test system is C. albicans 43001. Description: MIC/MFC, broth microdilution (modified CLSI M27-A2). It is filed as cell-based. The method, then:
(§1) C. albicans strains were tested against RTD-1, fluconazole, and caspofungin in microdilution broth in accordance with Clinical and Laboratory Standards Institute (CLSI) document M27-A2 with the exception that 25 mM MOPS was used in place of 165 mM MOPS, as described previously. Overnight cultures were harvested by centrifugation, washed twice with Ca^2+ and Mg^2+-free PBS, pH 7.2, and suspended in test medium (RPMI 1640 medium, 25 mM MOPS, 2 mM L-glutamine) at 10^4 CFU/ml[62]. Incubations were conducted in flat bottom, 96-well microtiter plates (Greiner bio-one, Monroe, NC) containing 0.2 ml test medium per well. Duplicate 0.1 ml aliquots of serial two-fold dilutions of peptides and antifungal drugs were dispensed into wells, each of which was inoculated with 0.1 ml of fungal cell suspension containing 1 × 10^3 CFU. Plates were incubated at 30 °C for 48 hours after which A600 was determined using a SpectraMax M5e plate reader.
(§2) Minimal fungicidal concentration (MFC) was determined by plating, on YPD plates, 10 µl from wells in MIC assay without cell growth and the first well with measurable turbidity as described[63]–[66] and corresponding aliquots from the no-agent controls. […] MFC is reported as the lowest concentration of peptide or antifungal drug that killed ≥99% of the input organisms.
(§3) MICs and MFCs of RTD-1 were also performed in the presence of 50% mouse serum. Serum was prepared from blood collected by cardiac puncture from BALB/c mice. After coagulation at room temperature, serum was collected by centrifugation (200 g for 10 min followed by 23,000 g for 15 min), and diluted with an equal volume of yeast inoculum in MIC test medium described above.
For orientation: Broth dilution looks for growth in wells or tubes with falling amounts of substance.

Test [1] relates to C. albicans 53264. The test is described as above. It is filed as cell-based. Here is the method:
as §1, §2, §3

Test [2] relates to C. albicans SC5314. The test is described as above. It is filed as cell-based. As to conditions: Candida albicans. Here is the method:
as §1, §2, §3

Test [3] deals with C. albicans 53264. Description: Systemic MDR candidiasis model, survival and renal fungal burden. The format is in vivo, CD-1 mice. Particulars: 5 mg/kg i.p. once per day for 7 days beginning 24 h p.i.; 1.8 × 10^7 blastospores i.v.; 40 days. The method, then: (as in Fig. 3d). CD-1, rather than BALB/c mice were used in the C. albicans 53264 challenge studies as this mouse strain was employed by Wiederhold et al. in the assessment of caspofungin efficacy against this pathogen. […] Fungal burdens were determined in kidneys of long term survivors in the RTD-1, Caspo, and Fluco-treated cohorts (euthanized at day 40) and from moribund mice from the survival study in Fig. 7a.
(§4) BALB/c female mice (7–8 weeks old) and CD-1 female mice (4–5 weeks old) were obtained from Charles River Laboratories and allocated randomly in groups of five mice per cage. Mice were maintained on a 12 h light/dark cycle in thermostatically controlled rooms for the duration of the experiment. C. albicans inocula were prepared fresh each day from saturated cultures grown overnight in YPD medium, washed in sterile PBS, and fungi were counted with hemocytometer. Stock suspensions were prepared in sterile PBS. BALB/c mice were challenged with 2 × 10^6 CFU/ml wild-type C. albicans reference strain SC5314, while CD-1 mice were challenged with 1.8 × 10^7 CFU/ml (0.15–0.2 ml) C. albicans clinical isolate 53264 by i.v. injection into the lateral caudal tail vein using a 28 G 1/2 inch needle. Animals were treated by i.v., s.c., or i.p. routes immediately post-infection (p.i.) or 24 h p.i. with sterile saline (control), RTD-1, fluconazole, or caspofungin administered at the concentrations indicated in a 0.200 ml. Mice were weighted and monitored daily for general clinical condition. Mice were euthanized as approved by the USC IACUC and in compliance with the National Institutes of Health Guide for the Care and Use of Laboratory Animals. All experiments were repeated at least three times.
(§5) To assess systemic fungal clearance, renal fungal burden was determined. Mice were euthanized at times indicated, and both kidneys were weighed, homogenized in 5 ml of sterile PBS, and serial dilutions of homogenate were plated on YPD agar plates and incubated at 30 °C for 2 days. CFU per gram of kidney was calculated.

Test [4] has as its system C. albicans 53264 biofilms. Kind of test: Biofilm XTT metabolic assay. The format is cell-based. As to conditions: pre-adhesion, 2 h adherent and 24 h mature biofilms. Here is the method:
(§6) The antifungal activities of RTD-1, caspofungin and fluconazole were evaluated against biofilms of C. albicans SC5314 and 53264 essentially as described by Pierce et al.[67]. Briefly, biofilms established for 0 h (preadhesion), 2 h (adherent), or 24 h (mature) were developed by adding 1 × 10^5 yeast cells in 50 or 100 µl of RPMI-1640 to wells of flat-bottom 96-well microtiter plates (Costar, Corning, NY). Fifty or 100 µl aliquots of serial 2-fold dilutions of peptide or antifungal drugs were added to wells in triplicate and incubated for 24 h or 48 h prior to analysis of biofilm metabolic activities. Concentrations of reagents used were as follows: RTD-1 - 0.09 – 100 µg/ml (0.05–48 µM), Fluco – 1–250 µg/ml (3.3–816.3 µM); Caspo- 0.003–8 µg/ml ([…]–7.3 µM). Analysis of the effect of each agent on Candida biofilms was performed using an XTT colorimetric assay. One hundred µl of 1 µM XTT/menadione added to each biofilm well, plates were incubated in the dark for 3 h at 37 °C, and 80 µl of supernatant was transferred to a new 96-well flat-bottom microtiter plate (Greiner Bio-one, Monroe, NC). Absorbance was measured at 490 nm on a SpectraMax® i3x (Molecular Devices). Readings were plotted as average of triplicates after subtracting the corresponding values for negative controls (XTT/menadione only).

For test [5], the system named is C. albicans SC5314 biofilms. Description: Biofilm XTT metabolic assay. The format is cell-based. As to conditions: pre-adhesion conditions. The method, then: as §6
In general terms: Tetrazolium assays rely on reduction of a dye to a coloured formazan, in cell work by metabolically active cells.

Test [6] deals with C. albicans SC5314. Description: Systemic candidiasis model, survival and renal fungal burden. The format is in vivo, BALB/c mice. Here is the method: The efficacy of RTD-1 in vivo was evaluated in an established model of systemic candidiasis using C. albicans SC5314. Both immunocompetent and immunosuppressed mouse models are employed in preclinical studies of systemic candidiasis. Since many of our preliminary studies employed the […] model, we conducted efficacy studies with RTD-1 and reference antifungal drugs in immunocompetent BALB/c mice. Mice were challenged i.v. with 3 × 10^5 blastospores at T = 0, which rapidly produces disseminated candidiasis and colonizes major organs in a manner resembling systemic candidiasis in humans. […] We analyzed the effect of a single 5 mg/kg dose of RTD-1 administered i.v., s.c., or i.p. immediately after i.v. fungal challenge, with i.p. saline as vehicle control. Fluco and Caspo, administered i.p. at 5 mg/kg, were used as drug comparators. […] In subsequent studies, antifungal agents were administered i.p. to circumvent potentially confounding effects resulting from treatment by the same route as infection, which was i.v. in all experiments.
as §4, §5

Test [7] concerns clinical isolate of C. albicans. As to conditions: 10 mg/kg i.p. daily beginning 24 h after infection; cited from earlier work. From the text:
Despite the remarkable in vitro properties of HDPs, efforts to develop them as therapeutics have met with limited success. Barriers encountered include lack of peptide stability, toxicity, adverse proinflammatory properties, and poor bioavailability.

≈ marks a conversion by molar mass, not a printed value. A value given as a limit tells only on which side of the number the result lay.

Turning to `OC(Cn1cncn1)(Cn1cncn1)c1ccc(F)cc1F` [Fluco, fluconazole], the MIC against C. albicans 43001 (Candida albicans, 43001, 48 h) was more than 256 µg/mL; in the test with C. albicans 53264 [1] (Candida albicans, 53264, 48 h) it was more than 256 µg/mL; in the test with C. albicans SC5314 [2] (RPMI 1640, 25 mM MOPS, 2 mM L-glutamine, 1 × 10^3 CFU/well, 30 °C, 48 h, A600, complete inhibition of growth, duplicate), 64 µg/mL (≈ 209 µM). In addition, the MFC in the test on C. albicans 43001 (Candida albicans, 43001, RPMI, plating of MIC wells on YPD, ≥99% killing of input inoculum) was more than 256 µg/mL; in the test with C. albicans 53264 [1] (Candida albicans, 53264, RPMI, plating of MIC wells on YPD, ≥99% killing of input inoculum), more than 256 µg/mL; with C. albicans SC5314 [2] (RPMI, plating of MIC wells on YPD, ≥99% killing of input inoculum) it was more than 256 µg/mL. Also, in the test with C. albicans 53264 [3], the “survival (log-rank)” value is given as “significantly (P < 0.0001) improved survival”. In addition, the “biofilm inhibition (XTT)” value in test [4] is “highly resistant”; in test [5], “more effective than RTD-1 at concentrations below 50 µg/ml”. In addition, the survival entry in the test on C. albicans SC5314 [6] (5 mg/kg i.p. once a day for 7 days, first dose 24 h after infection, 30 d) is “markedly enhanced survival”; in the test on C. albicans SC5314 [6] (single 5 mg/kg dose at T = 0 (RTD-1 i.v., s.c. or i.p.; Fluco, Caspo i.p.), 3 × 10^5 blastospores i.v., 30 days, vs saline), “effective in enhancing survival”.
As for IDR-1018, in test [7], the renal fungal burden entry is listed as “similarly modest reduction in renal fungal burden” and the survival entry was “modestly improved survival up to 8 days p.i”.
